From patent publication US8785499B2 (priority 2009, dated 2014)

How the values were obtained:
[1] = molecular target: ecNadD (Escherichia coli (strain K12), UniProt P0A752); experiment: biochemical; format: biochemical; conditions: for inhibition at 100 µM: read-out: INHIBITION (%) E. coli; for IC50: IC50 ecNadD
[2] = molecular target: baNadD (Bacillus anthracis, UniProt C3L5T6); experiment: biochemical; format: biochemical; conditions: for inhibition at 50 µM: read-out: INHIBITION (%) B. anthracis; for IC50: IC50 baNadD
Chain of baNadD (C3L5T6 whole entry, looked up): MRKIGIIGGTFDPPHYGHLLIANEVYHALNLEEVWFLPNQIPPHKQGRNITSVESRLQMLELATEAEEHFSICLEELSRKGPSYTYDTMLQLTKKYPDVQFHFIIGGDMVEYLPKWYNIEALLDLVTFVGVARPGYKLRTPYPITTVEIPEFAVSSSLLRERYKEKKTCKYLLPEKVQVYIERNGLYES

| Compound | inhibition at 100 µM [1] [%] | inhibition at 50 µM [2] [%] | IC50 [1] [µM] | IC50 [2] [µM] | […]. coli [1] [%] | […]. anthracis [2] [%] |
| --- | --- | --- | --- | --- | --- | --- |
| Nc1c(C(=O)Nc2ccc(F)cc2)sc2nc(-c3ccc(F)cc3)ccc12 [03_25] | 8 | 1 |  |  |  |  |
| Nc1c(C(=O)Nc2ccc(F)c(F)c2)sc2nc(-c3ccncc3)ccc12 [03_26] | 7 | 23 |  |  |  |  |
| Nc1c(C(=O)Nc2ccc(F)cc2F)sc2nc(-c3ccncc3)ccc12 [03_27] | 0 | 20 |  |  |  |  |
| Nc1c(C(=O)Nc2cc(Cl)cc(Cl)c2)sc2nc(-c3ccncc3)ccc12 [03_28] | 0 | 0 |  |  |  |  |
| Nc1c(C(=O)Nc2ccc(Cl)cc2)sc2nc(-c3ccncc3)ccc12 [03_29] | 0 | 0 |  |  |  |  |
| Cc1ccc(N/C=C2\C(=O)Nc3ccccc32)cc1Cl [15_01] | 24 | 37 | > 200 | > 200 |  |  |
| Cc1ccc(N/C=C2\C(=O)Nc3ccccc32)c(C)c1 [15_02] | 20 | 29 |  |  |  |  |
| CN(C)c1ccc(N/C=C2\C(=O)Nc3ccccc32)cc1 [15_03] | 19 | 27 |  |  |  |  |
| Cc1ccc(C)c(N/C=C2\C(=O)Nc3ccccc32)c1 [15_04] | 18 | 26 |  |  |  |  |
| O=C1Nc2ccccc2/C1=C/NCc1cccnc1 [15_05] | 17 | 23 |  |  |  |  |
| O=C1Nc2ccccc2/C1=C/Nc1ccc(F)cc1 [15_06] | 15 | 49 |  |  |  |  |
| O=C1Nc2ccccc2/C1=C/Nc1cccc(Cl)c1 [15_07] | 15 | 45 |  |  |  |  |
| COC(=O)c1ccccc1N/C=C1\C(=O)Nc2ccccc21 [15_08] | 14 | 0 |  |  |  |  |
| O=C1Nc2ccccc2/C1=C/Nc1ccc(Br)cc1 [15_09] | 13 | 60 | > 200 | 111 |  |  |
| Cc1cccc(N/C=C2\C(=O)Nc3ccccc32)c1C [15_10] | 13 | 26 |  |  |  |  |
| CSc1ccc(N/C=C2\C(=O)Nc3ccccc32)cc1 [15_12] | 12 | 25 |  |  |  |  |
| Cc1c(Cl)cccc1N/C=C1\C(=O)Nc2ccccc21 [15_13] | 12 | 36 |  |  |  |  |
| Cc1ccc(N/C=C2\C(=O)Nc3ccccc32)cc1C [15_14] | 12 | 70 | 88 | 74 |  |  |
| O=C1Nc2ccccc2/C1=C/Nc1cccnc1 [15_15] | 12 | 10 |  |  |  |  |
| O=C1Nc2ccccc2/C1=C/NCc1ccccc1 [15_16] | 11 | 6 |  |  |  |  |
| O=C1Nc2ccccc2/C1=C/Nc1ccccc1F [15_17] | 11 | 22 |  |  |  |  |
| CSc1cccc(N/C=C2\C(=O)Nc3ccccc32)c1 [15_18] | 11 | 24 |  |  |  |  |
| Cc1ccc(N/C=C2\C(=O)Nc3ccccc32)c(Cl)c1 [15_19] | 11 | 14 |  |  |  |  |
| Cc1cccc(N/C=C2\C(=O)Nc3ccccc32)n1 [15_20] | 11 | 8 |  |  |  |  |
| Cc1cc(C)c(N/C=C2\C(=O)Nc3ccccc32)c(C)c1 [15_21] | 10 | 30 |  |  |  |  |

| Compound | inhibition at 100 µM [1] [%] | inhibition at 50 µM [2] [%] | IC50 [1] [µM] | IC50 [2] [µM] | […]. coli [1] [%] | […]. anthracis [2] [%] |
| --- | --- | --- | --- | --- | --- | --- |
| O=C1Nc2ccccc2/C1=C/Nc1ccc(F)cc1F [15_22] | 10 | 28 |  |  |  |  |
| Cc1cc(C)cc(N/C=C2\C(=O)Nc3ccccc32)c1 [15_23] | 10 | 32 |  |  |  |  |
| CCc1ccc(N/C=C2\C(=O)Nc3ccccc32)cc1 [15_24] | 9 | 17 |  |  |  |  |
| COc1ccc(N/C=C2\C(=O)Nc3ccccc32)cc1 [15_25] | 9 | 16 |  |  |  |  |
| O=C1Nc2ccccc2/C1=C/Nc1ccccc1Br [15_26] | 8 | 8 |  |  |  |  |
| CCc1ccccc1N/C=C1\C(=O)Nc2ccccc21 [15_27] | 8 | 42 | > 200 | > 200 |  |  |
| Cc1cccc(N/C=C2\C(=O)Nc3ccccc32)c1 [15_28] | 8 | 24 | > 200 | > 200 |  |  |
| Cc1ccc(N/C=C2\C(=O)Nc3ccccc32)cc1 [15_29] | 7 | 38 |  |  |  |  |
| CC(C)c1ccc(N/C=C2\C(=O)Nc3ccccc32)cc1 [15_30] | 7 | 42 |  |  |  |  |
| Cc1ccccc1N/C=C1\C(=O)Nc2ccccc21 [15_31] | 7 | 27 | 118 | 112 |  |  |
| O=C1Nc2ccccc2/C1=C/NCCc1ccccc1 [15_32] | 7 | 4 |  |  |  |  |
| O=C1Nc2ccccc2/C1=C/NC1CCCCC1 [15_33] | 6 | 15 |  |  |  |  |
| CC(C)N/C=C1\C(=O)Nc2ccccc21 [15_34] | 4 | 9 |  |  |  |  |
| CC(=O)c1cccc(N/C=C2\C(=O)Nc3ccccc32)c1 [15_35] | 4 | 19 |  |  |  |  |
| Cc1cccc(C)c1N/C=C1\C(=O)Nc2ccccc21 [15_36] | 4 | 11 |  |  |  |  |
| COc1cccc(N/C=C2\C(=O)Nc3ccccc32)c1 [15_37] | 4 | 1 |  |  |  |  |
| Cc1ccc(CN/C=C2\C(=O)Nc3ccccc32)cc1 [15_38] | 3 | 17 |  |  |  |  |
| CC(N/C=C1\C(=O)Nc2ccccc21)c1ccccc1 (centres unmarked) [15_39] | 3 | 18 |  |  |  |  |
| O=C1Nc2ccccc2/C1=C/Nc1ccccc1C(=O)O [15_40] | 1 | 0 |  |  |  |  |
| CCc1cccc(C)c1N/C=C1\C(=O)Nc2ccccc21 [15_41] | 0 | 13 |  |  |  |  |
| CC(=O)c1ccc(N/C=C2/C(=O)Nc3ccccc32)cc1 [15_42] | 0 | 11 |  |  |  |  |
| O=C(CCC(=O)Nc1ccc(I)cc1)N/N=C/c1c2ccccc2cc2ccccc12 [compound 001] | 79 | 88 | 15 | 21 |  |  |
| S=C(N/N=C/c1ccccc1Cl)Nc1cc(Cl)ccc1Cl [compound 002] |  |  |  |  | 76 | 85 |
| Nc1c(C(=O)Nc2cccc(Cl)c2Cl)sc2nc(-c3cccs3)ccc12 [compound 003] | 73 | 40 |  |  |  |  |
| O=C(O)c1cc([N+](=O)[O-])ccc1Sc1cccs1 [compound 005] |  |  |  |  | 71 | 44 |

| Compound | inhibition at 100 µM [1] [%] | inhibition at 50 µM [2] [%] | IC50 [1] [µM] | IC50 [2] [µM] | […]. coli [1] [%] | […]. anthracis [2] [%] |
| --- | --- | --- | --- | --- | --- | --- |
| Brc1cnc2nc(/C=C/c3ccccc3)[nH]c2c1 [compound 006] |  |  |  |  | 62 | 34 |
| O=C1NC(=O)/C(=C\c2ccc(C(=O)O)cc2)N1 [compound 007] |  |  |  |  | 54 | 34 |
| CC(=O)Nc1ccc(S(=O)(=O)Nc2ccc(Cl)cc2Cl)cc1 [compound 008] |  |  |  |  | 47 | 0 |
| COC(=O)c1sc(NC(=O)/C=C/C(=O)O)nc1C [compound 009] |  |  |  |  | 45 | 0 |
| NS(=O)(=O)c1ccc(Nc2nc(-c3ccc(O)c(O)c3)cs2)cc1 [compound 010] |  |  |  |  | 32 | 89 |
| O=C(Nc1ncccn1)c1sc2ccccc2c1Cl [compound 011] |  |  |  |  | 31 | 0 |
| COc1cc(/C=N/c2ccc3[nH]c(=O)[nH]c3c2)ccc1OC(C)=O [compound 012] |  |  |  |  | 30 | 0 |
| N=C(N)NNC(=S)Nc1ccc(Cl)cc1 [compound 013] |  |  |  |  | 30 | 0 |
| Cc1cc(Nc2cccc(C(=O)O)c2)n2ncnc2n1 [compound 014] |  |  |  |  | 30 | 0 |
| O=C1Nc2ccccc2/C1=C/Nc1ccc(Br)cc1F [compound 015] | 29 | 57 | 30 | 16 |  |  |
| O=C(O)c1ccc([N+](=O)[O-])cc1C(=O)Nc1ccc(Cl)cc1 [compound 016] |  |  |  |  | 29 | 75 |
| O=C(O)CCC(=O)NNC(=O)c1cccc(O)c1 [compound 017] |  |  |  |  | 27 | 0 |
| Nc1nnc(CCSc2cc(Cl)ccc2Cl)s1 [compound 018] |  |  |  |  | 27 | 0 |
| N#CC1=C(N)OC(c2cccs2)=C(C#N)C1c1cccs1 (centres unmarked) [compound 019] |  |  |  |  | 26 | 27 |
| O=C(Nc1ccc(NC(=O)c2cccs2)cc1)c1ccccc1 [compound 020] |  |  |  |  | 26 | 0 |
| NS(=O)(=O)c1ccc(N/C=C/C(=O)c2ccc(Cl)s2)cc1 [compound 021] |  |  |  |  | 24 | 79 |
| Nc1nc(-c2ccc(NC(=O)c3ccc(Cl)cc3)cc2)cs1 [compound 022] |  |  |  |  | 24 | 31 |
| Cc1c(NC(=O)CSS(=O)(=O)O)c(=O)n(-c2ccccc2)n1C [compound 023] |  |  |  |  | 24 | 34 |
| O=C(O)CCCCCN1C(=O)c2ccc(F)cc2C1=O [compound 024] |  |  |  |  | 23 | 0 |
| Cc1ccc(F)cc1NC(=O)CSCC(=O)O [compound 025] |  |  |  |  | 23 | 55 |
| O=c1[nH]c(SCc2nc3ccccc3[nH]2)nc2ccccc12 [compound 026] |  |  |  |  | 23 | 0 |
| O=C(O)c1cccc(NCN2C(=O)c3ccccc3C2=O)c1 [compound 027] |  |  |  |  | 23 | 0 |
| O=C(NNC(=O)c1ccco1)c1cccc(I)c1 [compound 028] |  |  |  |  | 23 | 7 |
| O=C(O)CCC(C(=O)O)N1C(=O)c2cc(Cl)c(Cl)cc2C1=O (centres unmarked) [compound 029] |  |  |  |  | 22 | 0 |
